Source: PubChem BioAssay AID1918999 (Molecular Pharmacology Branch, DTP, NCI, 2023)

Tested on: 556581-035-R-J1-PDC complex spheroid growth
Assay: Anticancer human tumor 556581-035-R-J1-PDC patient-derived ovarian carcinoma cell line growth inhibition [AhR]
Conditions: for IC50: curve of first compound; for viability, T/C: stronger effect = lower value
Method in brief: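 Complex tumor spheroids co-cultured with HUVEC and human MSC stroma; AhR antagonists tested in combination with standard-of-care and investigational agents. Top concentration at or near clinical Cmax (else 10 microM), half-log dilutions; growth expressed as percent test/control.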

[1] = second compound 0.1 µM, first compound 0.000949 µM
[2] = second compound 0.1 µM, first compound 0.003 µM
[3] = second compound 0.1 µM, first compound 0.00949 µM
[4] = second compound 0.1 µM, first compound 0.03 µM
[5] = second compound 0.1 µM, first compound 0.0949 µM
[6] = second compound 0.1 µM, first compound 0.3 µM
[7] = second compound 0.316 µM, first compound 0.000949 µM
[8] = second compound 0.316 µM, first compound 0.003 µM
[9] = second compound 0.316 µM, first compound 0.00949 µM
[10] = second compound 0.316 µM, first compound 0.03 µM
[11] = second compound 0.316 µM, first compound 0.0949 µM
[12] = second compound 0.316 µM, first compound 0.3 µM
[13] = second compound 1 µM, first compound 0.000949 µM
[14] = second compound 1 µM, first compound 0.003 µM
[15] = second compound 1 µM, first compound 0.00949 µM
[16] = second compound 1 µM, first compound 0.03 µM
[17] = second compound 1 µM, first compound 0.0949 µM
[18] = second compound 1 µM, first compound 0.3 µM
[19] = second compound 3.16 µM, first compound 0.000949 µM
[20] = second compound 3.16 µM, first compound 0.003 µM
[21] = second compound 3.16 µM, first compound 0.00949 µM
[22] = second compound 3.16 µM, first compound 0.03 µM
[23] = second compound 3.16 µM, first compound 0.0949 µM
[24] = second compound 3.16 µM, first compound 0.3 µM
[25] = second compound 10 µM, first compound 0.000949 µM
[26] = second compound 10 µM, first compound 0.003 µM
[27] = second compound 10 µM, first compound 0.00949 µM
[28] = second compound 10 µM, first compound 0.03 µM
[29] = second compound 10 µM, first compound 0.0949 µM
[30] = second compound 10 µM, first compound 0.3 µM
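For viability, T/C in this document: compound exposure lasted 7 days; 100% = DMSO vehicle control growth.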

For `CC(C)CC(NC(=O)C(Cc1ccccc1)NC(=O)c1cnccn1)B(O)O` (stereo not given) + Cc1ccccc1N=Nc1ccc(NC(=O)c2ccnn2C)c(C)c1, the IC50 (second compound 0.1 µM) was 0.00578 µM, the IC50 (second compound 0.316 µM) was 0.00573 µM and the IC50 (second compound 1 µM) was 0.0059 µM. The IC50 (second compound 3.16 µM) was 0.00564 µM, the IC50 (second compound 10 µM) was 0.00597 µM and the viability, T/C [1] was 91.6%. For the same compound, the viability, T/C [2] was 117%, the viability, T/C [3] was 8.91% and the viability, T/C [4] was 0.21%. The viability, T/C [5] was 0.17%, the viability, T/C [6] was 0.27% and the viability, T/C [7] was 97.2%. For the same compound, the viability, T/C [8] was 105%, the viability, T/C [9] was 10.2% and the viability, T/C [10] was 0.34%. The viability, T/C [11] was 0.22%, the viability, T/C [12] was 0.22% and the viability, T/C [13] was 90.2%. The viability, T/C [14] was 115%, the viability, T/C [15] was 13.2% and the viability, T/C [16] was 0.19%. The viability, T/C [17] was 0.16%, the viability, T/C [18] was 0.26% and the viability, T/C [19] was 88.2%. The viability, T/C [20] was 100%, the viability, T/C [21] was 13.6% and the viability, T/C [22] was 0.16%. The viability, T/C [23] was 0.17%, the viability, T/C [24] was 0.22% and the viability, T/C [25] was 82.3%. For the same compound, the viability, T/C [26] was 89.1%, the viability, T/C [27] was 25.9% and the viability, T/C [28] was 0.35%. For the same compound, the viability, T/C [29] was 0.31% and the viability, T/C [30] was 0.28%.

`CCc1c2c(nc3ccc(O)cc13)-c1cc3c(c(=O)n1C2)COC(=O)[C@]3(O)CC` + Cc1ccccc1N=Nc1ccc(NC(=O)c2ccnn2C)c(C)c1 was tested, and the IC50 (second compound 0.1 µM) was 0.0212 µM, the IC50 (second compound 0.316 µM) was 0.017 µM and the IC50 (second compound 1 µM) was 0.0188 µM. It also gave an IC50 (second compound 3.16 µM) of 0.0205 µM, an IC50 (second compound 10 µM) of 0.0221 µM and a viability, T/C [1] of 97.1%. It also gave a viability, T/C [2] of 87.2%, a viability, T/C [3] of 64.8% and a viability, T/C [4] of 42%. For the same compound, the viability, T/C [5] was 27.1%, the viability, T/C [6] was 12.8% and the viability, T/C [7] was 98.1%. It also gave a viability, T/C [8] of 86.4%, a viability, T/C [9] of 64.3% and a viability, T/C [10] of 36.5%. For the same compound, the viability, T/C [11] was 18.3%, the viability, T/C [12] was 12.7% and the viability, T/C [13] was 98.8%. It also gave a viability, T/C [14] of 82.5%, a viability, T/C [15] of 64.1% and a viability, T/C [16] of 41.5%. The viability, T/C [17] was 23.7%, the viability, T/C [18] was 16.7% and the viability, T/C [19] was 84%. For the same compound, the viability, T/C [20] was 86.5%, the viability, T/C [21] was 74.6% and the viability, T/C [22] was 37.2%. It also gave a viability, T/C [23] of 20.7%, a viability, T/C [24] of 14.1% and a viability, T/C [25] of 94.5%. For the same compound, the viability, T/C [26] was 88.3%, the viability, T/C [27] was 72.9% and the viability, T/C [28] was 40.8%. For the same compound, the viability, T/C [29] was 23.2% and the viability, T/C [30] was 14.2%.

In the case of `COc1cc(Nc2ncc3c(n2)-c2ccc(Cl)cc2C(c2c(F)cccc2OC)=NC3)ccc1C(=O)O` + Cc1ccccc1N=Nc1ccc(NC(=O)c2ccnn2C)c(C)c1, the IC50 (second compound 0.1 µM) is reported as > 10 µM, the IC50 (second compound 0.316 µM) is reported as > 10 µM and the IC50 (second compound 1 µM) is reported as > 10 µM. For the same compound, the IC50 (second compound 3.16 µM) was > 10 µM, the IC50 (second compound 10 µM) was > 10 µM and the viability, T/C (second compound 0.1 µM, first compound 0.0316 µM) was 83.8%. For the same compound, the viability, T/C (second compound 0.1 µM, first compound 0.1 µM) was 72.4%, the viability, T/C (second compound 0.1 µM, first compound 0.316 µM) was 69.2% and the viability, T/C (second compound 0.1 µM, first compound 1 µM) was 61.4%. The viability, T/C (second compound 0.1 µM, first compound 3.16 µM) was 60.4%, the viability, T/C (second compound 0.1 µM, first compound 10 µM) was 59.4% and the viability, T/C (second compound 0.316 µM, first compound 0.0316 µM) was 78%. For the same compound, the viability, T/C (second compound 0.316 µM, first compound 0.1 µM) was 73.5%, the viability, T/C (second compound 0.316 µM, first compound 0.316 µM) was 68.5% and the viability, T/C (second compound 0.316 µM, first compound 1 µM) was 56.6%. The viability, T/C (second compound 0.316 µM, first compound 3.16 µM) was 61.1%, the viability, T/C (second compound 0.316 µM, first compound 10 µM) was 48.7% and the viability, T/C (second compound 1 µM, first compound 0.0316 µM) was 80.5%. It also gave a viability, T/C (second compound 1 µM, first compound 0.1 µM) of 73.2%, a viability, T/C (second compound 1 µM, first compound 0.316 µM) of 69% and a viability, T/C (second compound 1 µM, first compound 1 µM) of 62.8%. The viability, T/C (second compound 1 µM, first compound 3.16 µM) was 64.7%, the viability, T/C (second compound 1 µM, first compound 10 µM) was 54.9% and the viability, T/C (second compound 3.16 µM, first compound 0.0316 µM) was 67.2%. For the same compound, the viability, T/C (second compound 3.16 µM, first compound 0.1 µM) was 66.2%, the viability, T/C (second compound 3.16 µM, first compound 0.316 µM) was 57.6% and the viability, T/C (second compound 3.16 µM, first compound 1 µM) was 58.1%. For the same compound, the viability, T/C (second compound 3.16 µM, first compound 3.16 µM) was 58.6%, the viability, T/C (second compound 3.16 µM, first compound 10 µM) was 49.2% and the viability, T/C (second compound 10 µM, first compound 0.0316 µM) was 70.2%. The viability, T/C (second compound 10 µM, first compound 0.1 µM) was 61.9%, the viability, T/C (second compound 10 µM, first compound 0.316 µM) was 62.1% and the viability, T/C (second compound 10 µM, first compound 1 µM) was 66%. For the same compound, the viability, T/C (second compound 10 µM, first compound 3.16 µM) was 57.6% and the viability, T/C (second compound 10 µM, first compound 10 µM) was 56.8%.
